The values below come from PubChem BioAssay (NCI).

Values joined by “and” are separate entries in the source; they are usually repeats but may differ in a detail not shown here. Identical values can stand only once.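 Compound exposure: 48 hours, 5 concentrations, 96-well plates. At the TGI there is no net growth.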 Where only a bound is given, the exact number is not on record here.

Common to all, as to experiment: NCI tumour cell line growth inhibition, 48 h
For assay [1], the system named is SNB-75 CNS.
The test system of assay [2] is A549 NSCLC.
The test system of assay [3] is SN12C renal.
Assay [4] has as its system NCI-H226 lung.
For assay [5], the system named is NCI-H23 lung.
Assay [6] concerns HL-60(TB) leukemia.
Assay [7] has as its system NCI/ADR-RES ovarian.
Assay [8] deals with OVCAR-5 ovarian.
The subject of assay [9] is A498 renal.
The test system of assay [10] is KM12 colon.
Assay [11] has as its system BT-549 breast.
Assay [12] relates to ACHN renal.
Assay [13] has as its system UACC-257 melanoma.
The test system of assay [14] is MCF7 breast.
Assay [15] has as its system HS 578T breast.
Assay [16] deals with MDA-MB-231 breast.

In the case of `CC1(C)C2CCC(N)(C2)C1N` (centres undefined), the TGI in assay [1], in assay [2], in [3], in assay [4], in assay [5] and in [6] was above 100 µM in each case. Moreover, the TGI in assay [7], in assay [8], in [9], in assay [10], in [11] and in assay [12] was above 100 µM each time. The TGI in [13] and in [14] was above 100 µM throughout.

Consider `CN=CN(C)c1c2ccccc2nc2ccccc12`, for which the TGI in assay [1], in assay [2], in [3], in assay [4], in assay [15] and in assay [5] was above 100 µM in each case. Further, the TGI in assay [6], in [7], in assay [8], in assay [9], in assay [10] and in [12] was above 100 µM in each case. The TGI in assay [13], in assay [14] and in assay [16] was above 100 µM in each case.

As to `C(=Nc1ccc(-c2cc(-c3ccccc3)nc3ccc4ccccc4c23)cc1)c1ccccc1`, the TGI in assay [1] was above 100 µM; in assay [2] it was 62.2 µM; in assay [3], above 100 µM; in assay [4], 66.3 µM; in [15], 68.6 µM; in assay [5], above 100 µM. Further, the TGI was above 100 µM in [6]; above 100 µM in assay [7]; above 100 µM in assay [8]; 70.3 µM in assay [9]; 68 µM in [10]; above 100 µM in assay [12]. In addition, the TGI was 92.1 µM in [13], above 100 µM in assay [14] and above 100 µM in assay [16].

For the compound `C=CC(C)(C)C(=C)C(=O)N(C)c1ccccc1I`, the TGI in assay [1], in assay [2], in assay [3], in [4], in assay [15] and in assay [5] was above 100 µM in each case. Further, the TGI in [7], in assay [8], in [9], in assay [10], in assay [12] and in assay [13] was above 100 µM each time. In addition, the TGI in [14] and in assay [16] was above 100 µM in each case.

On to `COc1cc(C2c3cc4c(cc3[C@@H](NCCN3CCCCC3)C3COC(=O)[C@H]23)OCO4)cc(OC)c1O` (some centres undefined), for which the TGI in [1] was 2.9 µM; in assay [2], 1.3 µM; in [3], 5.81 µM and 5.85 µM; in assay [4], 0.209 µM and 0.208 µM; in assay [5], 1.39 µM and 1.48 µM; in assay [6] it was 0.402 µM and 0.36 µM. In addition, the TGI in assay [8] is 5.06 µM and 5.73 µM; in assay [9], 0.904 µM and 1.47 µM; in [10], 3.8 µM and 3.88 µM; in [13] it was 41.4 µM and 85 µM.

Regarding `CC(O)(/C=C/c1ccccc1)P(=O)(O)c1ccccc1` (centres undefined), the TGI in [1], in assay [2], in assay [3], in assay [4], in assay [15] and in assay [5] was above 100 µM each time. Besides, the TGI in assay [6], in assay [7], in assay [8], in assay [9], in assay [10] and in assay [12] was above 100 µM throughout. In addition, the TGI in assay [13] and in assay [14] was above 100 µM throughout.

Take `O=c1[nH]c(=O)n(COCCO)c2ccc(Br)cc12`: the TGI in assay [1], in [2], in assay [3], in assay [4], in [6] and in assay [7] was above 100 µM each time. Besides, the TGI in assay [8], in [9], in assay [10], in [12], in assay [13] and in assay [14] was above 100 µM each time. The compound further returned a TGI in assay [16] above 100 µM.

Regarding `CCn1c2ccccc2c2ccc3c(c21)C(=O)c1ccccc1C3=O`, the TGI in assay [1], in assay [2], in [3], in [4], in assay [5] and in assay [6] was above 100 µM in each case. Also, the TGI in assay [9], in [12] and in assay [13] was above 100 µM in each case.

As for `COc1cc(Cl)cc(N(O)C(C)=O)c1OCc1ccccc1`, the TGI in assay [1] is 76.4 µM; in [2] it was above 100 µM; in assay [3], above 100 µM; in [4], above 100 µM; in assay [5] it was above 100 µM; in assay [6] it was above 100 µM. For the same compound, the TGI in assay [8], in assay [9], in assay [10], in [12] and in assay [13] was above 100 µM in each case.

Turning to `NC1=NNC2(C(=O)N1)c1ccccc1-c1ccccc12`, the TGI in assay [1], in assay [2], in assay [3], in [4], in assay [5] and in assay [6] was above 10 µM each time. The TGI in assay [7], in assay [8], in assay [9], in assay [10], in assay [12] and in assay [14] was above 10 µM each time.

In the case of `COc1ccc(N(C)Sc2ccccc2)cc1`, the TGI in [2] was above 100 µM; in [3], 75.3 µM; in assay [5] it was above 100 µM; in [6], 52.3 µM; in [8], above 100 µM; in [10], above 100 µM. In addition, the TGI in assay [13] was above 100 µM.
